Assay results: US10093699B2, “Peptides with antimicrobial, anticancer and/or wound-healing promoting activities, pharmaceutical compositions containing the same, and use of the peptides with antimicrobial, anticancer and/or wound-healing promoting activities” (priority 2015, dated 2018)
≈ marks a conversion by molar mass, not a printed value. Where a SMILES comes first, the peptide text is derived from it. [ ]: non-standard residue; d: D form. 2Nal = N[C@@H](Cc1ccc2ccccc2c1)C(=O)O

How the values were obtained:
Type in all cases: cell-based
[1] = system: Escherichia coli strain (ATCC 25922); assay: microbe, parasite or virus in culture; conditions: ATCC25922, E. coli ATCC 25922, LYM control, read-out: Minimum inhibitory concentration (MIC)
Method: (§1) Escherichia coli strain (ATCC 25922), Staphylococcus aureus subsp strain (ATCC 25923, methicillin-resistant), and Pseudomonas aeruginosa Migula strain (ATCC 27853, ampicillin-resistant) were used to test the antibacterial activity of the peptides. Bacteria were cultured in sterilized Mueller-Hinton (MH) culturing medium at 200 rpm and 37° C. for 8 hours.
(§2) After 8 hours culture, concentration of the inoculums were determined by measuring absorbance of optical density at 600 nm (OD 600=1, equal to approximately 10^8 CFU/mL) with UV/Visible spectrophotometer.
(§3) The antibacterial activities were determined by the standard broth microdilution method of National Committee for Clinical Laboratory Standards with the LYM broth. The LYM broth contains 5.4 mM KCl, 5.6 mM Na2HPO4, 0.5 mM MgSO4, and 1.0 mM sodium citrate. In addition, 0.4 mg of ZnCl2, 2.0 mg of FeCl3. 6H2O, 0.1 mg of CuSO4. 5H2O, 0.1 mg of MnSO4.H2O, 0.1 mg of Na2B4O7.10H2O, 700 mg of amino acid mixtures without tryptophan (Clontech), and 20 mg of L-Tryptophan were added per liter of medium. A vitamin mixture (100×, Sigma) and glucose at final concentration of 2% were also added.
(§4) 1 μl peptide solutions (ranging from 5000 μg/ml to 78 μg/ml in serial dilution) was prepared and mixed with 99 μl inoculum (5×10^5 CFU/ml) in polypropylene 96-well plate. The turbidity at OD 600 nm was measured by ELISA plate reader (Thermo Max, Molecular Devices, Sunnyvale, Calif.). The absorbance of culture medium and inoculum suspension without peptides were used as the negative and positive control, respectively. The minimum inhibitory concentration (MIC) value is the lowest concentration of peptide at which there is no obvious growth (equal or more than 90%). […] All peptides were tested in triplicate.

[2] = system: Staphylococcus aureus subsp strain (ATCC 25923, methicillin-resistant); assay: microbe, parasite or virus in culture
Method: as §1, §2, §3, §4

[3] = system: human fibroblast (HFW); assay: MTT cytotoxicity to normal fibroblasts; conditions: MTT assay
Method: Human lung cancer line PC9 and A549, oral squamous cell carcinoma cell line OECM-1 were cultured in RPMI medium supplemented with 10% fetal bovine serum and antibiotic. Human tongue carcinoma cell line SAS, oral cancer cell line C9, and human diploid fibroblast (HFW) were cultured in DMEM medium supplemented with 10% fetal bovine serum and antibiotic. Cells were cultured in a humidified incubator containing 5% CO2 at 37° C.
The MTT assay was employed to determine the in vitro cytotoxicity. All cancer cell lines were seeded in 96-well plate with concentration 5000 cells/100 μl/well and incubated for 24 hours. HFW was seeded with 8000 cells/100 μl/well.
After medium was removed, 100 μl fresh medium containing peptide (ranging from 50 μM to 3.13 μM, HFW was treated with 75 μM and 100 μM peptide additionally) was added to the wells. Following 3, 12 or 24 hour incubation, fresh medium with MTT (0.5 mg/ml) was replaced and incubated for 3 hours. After medium/MTT was removed, DMSO was added at 100 μl for dissolving the formazan crystal. Cell survival rate was calculated by measuring the absorbance at 540 nm using Multi-labeled Microplate Reader (VICTOR3). For cancer cells, medium mixed with H2O2 (aq) represented positive control (all cells died) while medium only represented negative control. For normal cells, medium only represented positive control (all cells lived) while medium mixed with H2O2 (aq) represented negative control (all cells died).
The cytotoxicities of S1 and its analogs on human lung cancer cells (i.e, PC9, PC9-G and A549), human oral cancer cells (i.e, C9, OECM-1, and SAS), and human fibroblast (HFW) were evaluated by MTT assay for 3, 12 and 24 hours.

Row | Compound | MIC [1] [µg/mL] | MIC ([2]; Staphylococcus aureus, ATCC25923, S. aureus ATCC 25923, LYM control, read-out: Minimum inhibitory concentration (MIC)) [µg/mL] | degrees of cytotoxicities to HFW (rank order) [3] | Minimum inhibitory concentration (MIC) ([2]; ATCC 25923, 8 h) [µg/mL]
1 | CC1(C)S[C@@H]2[C@H](NC(=O)[C@H](N)c3ccccc3)C(=O)N2[C@H]1C(=O)O [AP, Ampicillin, reference compound] | 25 (≈ 71.5 µM) | 3.1 (≈ 8.87 µM) | – | –
2 | CC(=O)N[C@@H](CCCCN)C(=O)N[C@@H](CCCCN)C(=O)N[C@@H](CCCCN)C(=O)N[C@@H](CCCCN)C(=O)N[C@@H](CCCCN)C(=O)N[C@@H](CCCCN)C(=O)N[C@@H](Cc1ccc2ccccc2c1)C(=O)N[C@@H](Cc1ccc2ccccc2c1)C(=O)N[C@@H](CCCCN)C(=O)N[C@@H](CCCCN)C(=O)N[C@@H](Cc1c[nH]c2ccccc12)C(=O)N[C@@H](CCCNC(=N)N)C(=O)N[C@@H](CCCCN)C(=O)N[C@@H](Cc1c[nH]c2ccccc12)C(=O)N[C@@H](CC(C)C)C(=O)N[C@@H](C)C(=O)N[C@@H](CCCCN)C(=O)N[C@@H](CCCCN)C(N)=O [K6-Nal2-S1, Ac-KKKKKK-Nal-Nal-KKWRKWLAKK-NH2] (Ac-KKKKKK[2Nal][2Nal]KKWRKWLAKK-NH2) | – | – | S1 peptide<K4R2-Nal2-S1 peptide<K6-Nal2-S1 peptide<Nal2-S1 peptide | –
3 | CC(=O)N[C@@H](Cc1ccc2ccccc2c1)C(=O)N[C@@H](Cc1ccc2ccccc2c1)C(=O)N[C@@H](CCCCN)C(=O)N[C@@H](CCCCN)C(=O)N[C@@H](Cc1c[nH]c2ccccc12)C(=O)N[C@@H](CCCNC(=N)N)C(=O)N[C@@H](CCCCN)C(=O)N[C@@H](Cc1c[nH]c2ccccc12)C(=O)N[C@@H](CC(C)C)C(=O)N[C@@H](C)C(=O)N[C@@H](CCCCN)C(=O)N[C@@H](CCCCN)C(N)=O [Nal2-S1, Ac-Nal-Nal-KKWRKWLAKK-NH2] (Ac-[2Nal][2Nal]KKWRKWLAKK-NH2) | – | – | S1 peptide<K4R2-Nal2-S1 peptide<K6-Nal2-S1 peptide<Nal2-S1 peptide | 3.1 (≈ 1.72 µM)
4 | Ac-KKWRKWLAKK-NH2 [S1, Ac-KKWRKWLAKK-NH2, reference compound] | – | – | S1 peptide<K4R2-Nal2-S1 peptide<K6-Nal2-S1 peptide<Nal2-S1 peptide | –
